# Reference: patent US20100137138A1, “HERBICIDE/SAFENER COMBINATION” (BAYER CROPSCIENCE AG, priority 2008, published 2010)
# How the values were obtained:
# Type in all cases: in vivo
# Wheat (Triso) = experiment: Pre-emergence herbicidal effect and safener effect, Wheat (Triso); settings: herbicide dosage 100 g a.i./ha, visual scoring vs untreated controls
# From the text: (§1) Seeds or rhizome pieces of mono- and dicotyledonous weed plants and crop plants were planted in peat pots in sandy loam and covered with earth. The herbicide/safener active ingredient combinations according to the invention, formulated as water-soluble powders or suspensions, and, in parallel experiments, the correspondingly formulated individual active ingredients were then applied to the surface of the covering earth at an application rate of 600 to 800 l of water/ha (converted) in a variety of dosages.
# (§2) After the treatment, the pots were placed in the greenhouse and kept under good growth conditions for the weeds and the crop plants. Visual scoring of the plant damage or emergence damage was carried out after the test plants had emerged after a test period of 2 to 4 weeks, in comparison with untreated controls.
# Barley (Adonis) = experiment: Post-emergence herbicidal effect and safener effect, Barley (Adonis); settings: herbicide dosage 25 g a.i./ha, visual scoring vs untreated controls
# Procedure: (§3) Seeds or rhizome pieces of mono- and dicotyledonous harmful plants and of crop plants are planted in peat pots in sandy loam, covered with earth and grown in a greenhouse under good growth conditions. Alternatively to this, harmful plants occurring in the paddy rice cultivation are cultivated in pots in which water stands up to 2 cm above the soil surface. 10 to 20 days after sowing, the test plants are treated in the one to three-leaf stage. The herbicide/safener active ingredient combinations according to the invention, formulated as water-soluble powders or suspensions, and, in parallel experiments, the correspondingly formulated individual active ingredients are sprayed onto the green plant parts in various dosages using an application rate of 300 l of water/ha (converted) and, after the test plants have remained in the greenhouse under optimum growth conditions for 2-3 weeks, the effect of the preparations is scored visually in comparison with untreated controls. In the case of rice or in the case of harmful plants which occur in the rice cultivation, the active ingredients are also placed directly into the irrigation water (application analogous to the so-called granules application) or sprayed onto plants and into the irrigation water.
# Corn (Aventura) [1] = experiment: Pre-emergence herbicidal effect and safener effect, Corn (Aventura); settings: herbicide dosage 100 g a.i./ha, visual scoring vs untreated controls
# From the text: as §1, §2
# Corn (Aventura) [2] = experiment: Post-emergence herbicidal effect and safener effect, Corn (Aventura); settings: herbicide dosage 50 g a.i./ha, visual scoring vs untreated controls
# Procedure: as §3
# Rice (Ballila) = experiment: Post-emergence herbicidal effect and safener effect, Rice (Ballila); settings: herbicide dosage 100 g a.i./ha, visual scoring vs untreated controls
# Procedure: as §3
smiles,measurement,setting,value
COC(=O)c1nc(-c2ccc(Cl)c(OC)c2F)nc(N)c1Cl [Compound I-272],% Effect (without safener),Wheat (Triso),30%
same,% Effect (without safener),Barley (Adonis),20%
same,% Effect (without safener),Corn (Aventura) [1],70%
same,% Effect (without safener),Corn (Aventura) [2],70%
same,% Effect (without safener),Rice (Ballila),70%
